Source: the supplement of paper PMC6045584

Compound: CS(=O)(=O)c1ccc(C(=O)Nc2ccc(Cl)c(-c3ccccn3)c2)c(Cl)c1 [VISMODEGIB]
Test: area under dose-response curve of surviving fraction (unscaled, Aref=0) (surviving fraction x log10(nM)); higher = more resistant
Settings: exposure time: 5 days; dose range 0.5-1000 nM
Method in brief: (§1)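 Each tumour cell line was screened three times in 384-well plates, receiving eight inhibitor concentrations from 0.5 to 1000 nM for five days. CellTiter-Glo luminescence gave viability, normalised to DMSO-only wells. Using the drc R package, surviving fractions were fitted with 3-parameter logistic dose-response curves, and the unscaled activity area over log10 dose (Aref = 0) was taken as the area under the curve.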

Test System	area under dose-response curve
HMLE3 BREAST	3.06
HS578T BREAST	3.11
HCC38 BREAST	2.67
G292 BONE	3.2
HCC70 BREAST	3.57

Compound: CCN(CC)CCCCNc1ncc2cc(-c3cc(OC)cc(OC)c3)c(NC(=O)NC(C)(C)C)nc2n1
Test: as above
Settings: exposure time: 5 days; dose range 0.5-1000 nM
Method in brief: as §1

Test System	area under dose-response curve
HMLE3 BREAST	2.61
HS578T BREAST	3.03
G292 BONE	2.16
HCC70 BREAST	3.36

Compound: COc1ccc(C2=N[C@@H](c3ccc(Cl)cc3)[C@@H](c3ccc(Cl)cc3)N2C(=O)N2CCNC(=O)C2)c(OC(C)C)c1 [NUTLIN3]
Test: as above
Settings: exposure time: 5 days; dose range 0.5-1000 nM
Method in brief: as §1

Test System	area under dose-response curve
HCC38 BREAST	4.18
G292 BONE	3.34
HCC70 BREAST	3.49
